Patent US20250270216A1, “ANTI-INFECTIVE AGENTS” (UNIVERSITY OF DUNDEE, priority 2022, published 2025)

Tests used:
[1] = biological target: PfLysRS (Plasmodium falciparum, UniProt Q8IDJ8); settings: Hoepfner et al, Cell Host Microbe, 2012; cited from earlier work
[2] = tested on: Hep G2 (Human hepatocyte carcinoma); test: In vitro inhibition of HepG2 cells (cytotoxicity); assay type: cell-based; settings: read-out: Hs HepG2 PEC50 (converted)
Excerpt: Assay Method for Measurement of In Vitro Inhibition of HepG2 Cells (Cytotoxicity)
These experiments were run in accordance with the method of Mersch-Sundermann V et. al. Toxicology 2004, 198:329-340

[3] = tested on: Cryptosporidium parvum; test: In vitro inhibition of Cryptosporidium (method of Bessoff et al.); assay type: cell-based; settings: read-out: C. parvum PEC50 (converted)
Excerpt: Assay Method for Measurement of In Vitro Inhibition of Cryptosporidium
These experiments were run in accordance with the method of Besssoff et. al. Antimicrob. Agents Chemother. 2013, 57:1804-1814. Results from these experiments are provided in the Experimental Results hereinafter.

[4] = biological target: T1, Human lysyl tRNA Synthetase (KRS) (Homo sapiens, UniProt Q15046); test: In vitro inhibition of human lysyl tRNA synthetase (KRS), Biomol green phosphate detection; assay type: biochemical; settings: 3.5 μM ATP, 6 μM L-Lysine, 5 h room temperature; read-out: Hs KRS pIC50 (converted)
T1 construct: His tag with PreScission site (His PP pET15b); made in house; host or cells: E. coli BL21 (DE3)
T1 sequence (Q15046 whole entry): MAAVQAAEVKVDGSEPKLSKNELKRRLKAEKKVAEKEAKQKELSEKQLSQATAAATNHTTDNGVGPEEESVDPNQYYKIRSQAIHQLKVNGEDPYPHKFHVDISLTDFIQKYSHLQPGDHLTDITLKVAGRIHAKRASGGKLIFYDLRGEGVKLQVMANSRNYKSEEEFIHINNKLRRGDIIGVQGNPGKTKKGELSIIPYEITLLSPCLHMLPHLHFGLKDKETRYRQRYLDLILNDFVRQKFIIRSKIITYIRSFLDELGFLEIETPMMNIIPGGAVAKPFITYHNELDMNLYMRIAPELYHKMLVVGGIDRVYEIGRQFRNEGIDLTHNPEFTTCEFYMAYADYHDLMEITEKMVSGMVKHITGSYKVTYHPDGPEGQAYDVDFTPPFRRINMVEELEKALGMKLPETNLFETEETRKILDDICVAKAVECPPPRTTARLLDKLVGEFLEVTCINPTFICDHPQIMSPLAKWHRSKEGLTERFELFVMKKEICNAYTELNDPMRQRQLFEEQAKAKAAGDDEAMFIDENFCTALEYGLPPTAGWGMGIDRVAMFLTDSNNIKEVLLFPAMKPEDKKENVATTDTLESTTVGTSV
Description: The gene coding for Human KRS, codon optimized for expression in E. coli, was obtained from Genscript and cloned into a His PP pET15b vector using Nde1 and Xho1 restriction sites. The resulting vector was used to transform BL21 (DE3) competent cells for protein expression. A 120 ml overnight culture was set up and grown at 37° C. 200 rpm for 16 h and used the next day to inoculate 6 litres of Autoinduction+AMP medium. This culture was grown at 37° C. for 4 h then 20° C. for 20 h. The cells were harvested by centrifugation at 3,500 g for 30 min then stored at −20° C. The resulting cell pellet was 50 g. Lysis buffer (150 ml, 25 mM HEPES/500 mM NaCl/20 mM imidazole/2 mM DTT/10% glycerol pH 7.5/protease inhibitor tablets/DNAase) was added and the pellets for defrosted at room temperature for approximately 10 min. The slurry was then passed through a Cell Disrupter (Constant Systems) set at […] to lyse the cells. The sample was then centrifuged at 40,000 g for 20 min. The supernatant was then filtered using syringe filters to 0.45 μm. The supernatant was loaded onto a 5 ml HiTrap Ni HP column that had been equilibrated with BufferA (25 mM HEPES/500 mM NaCl/20 mM Imidazole/2 mM DTT/10% Glycerol pH 7.5) at 5 ml/min using an AKTA Pure system. Once loaded the column was washed with 10 column volumes buffer A. A 5% step of Buffer B (25 mM HEPES/500 mM NaCl/500 mM Imidazole/2 mM DTT/10% Glycerol pH 7.5) was then used to wash off His rich contaminating proteins. A gradient of 5-50% B was used to elute the protein. Approximately 55 mg of protein was present in the fractions containing the HsKRS protein. The sample was then passed through a 0.2 μm filter, before loading onto a XK26/60 Superdex 200 column equilibrated with Buffer C (25 mM HEPES/150 mM NaCl/2 mM DTT/10% glycerol pH 7.0) using an AKTA Pure system at 4° C. at 2 ml/min. The sample was then dialyzed into 25 mM HEPES/500 mM NaCl//2 mM DTT/10% glycerol/0.25% azide pH 7.0. The protein was concentrated to 1 mg/ml and frozen at −80° C. Approximately 23 mg of protein was produced.
Assay Method for Measurement of In Vitro Inhibition of Human lysyl tRNA Synthetase (KRS)
Potency of compounds was determined in 10 points dose-response inhibition curves. Compounds were transferred into 384-well clear bottom plates (Greiner Bio-One, 781101) using an Echo 550 acoustic dispenser (Labcyte). Using an automatic liquid dispenser, 50 μL reaction mixes were prepared by adding 25 μL of substrate mix into all wells followed by the addition of 25 μL enzyme mix into all wells (final reaction: 30 mM Tris-HCl, pH 8.0, 40 mM MgCl2, 140 mM NaCl, 30 mM KCl, 0.01% Brij-35, 1 mM DTT, 3.5 μM ATP, 6 μM L-Lysine, 200 nM […] and 0.5 U/mL Pyrophosphatase). Complete inhibition control reactions were performed in the presence of 100 μM of control compoundand the plates were incubated at room temperature for 5 h. Reactions were stopped by the addition of Biomol green (50 μL: Enzo Life Sciences) with the amount of free phosphate detected by measuring absorbance (650 nm) after 20 min further incubation (BMG Pherastar plate reader). Counter screen assays to eliminate direct inhibition of pyrophsphatase were performed using 0.5 U/mL pyrophosphatase and 3 μM pyrophosphate as substrate in the same assay buffer (30 mM Tris-HCl, pH 8.0, 40 mM MgCl2, 140 mM NaCl, 30 mM KCl, 0.01% Brij-35, 1 mM DTT) for 5 hours at room temperature. Biomol green was added and incubated for 20 min before detection as above. Samples were run in duplicate and data was processed and analysed using ActivityBase (IDBS).

[5] = biological target: Cryptosporidium parvum lysyl t-RNA synthetase (Cp KRS) (Cryptosporidium parvum, UniProt Q5CR27); test: In vitro inhibition of Cryptosporidium lysyl tRNA synthetase (KRS), Biomol green phosphate detection; assay type: biochemical; settings: 300 nM CpKRS, 500 μM ATP, 1.2 mM L-Lysine, 8 h room temperature; read-out: C. parvum KRS pIC50 (converted)
Sequence of Cryptosporidium parvum lysyl t-RNA synthetase (Cp KRS) (Q5CR27 entry or part of it): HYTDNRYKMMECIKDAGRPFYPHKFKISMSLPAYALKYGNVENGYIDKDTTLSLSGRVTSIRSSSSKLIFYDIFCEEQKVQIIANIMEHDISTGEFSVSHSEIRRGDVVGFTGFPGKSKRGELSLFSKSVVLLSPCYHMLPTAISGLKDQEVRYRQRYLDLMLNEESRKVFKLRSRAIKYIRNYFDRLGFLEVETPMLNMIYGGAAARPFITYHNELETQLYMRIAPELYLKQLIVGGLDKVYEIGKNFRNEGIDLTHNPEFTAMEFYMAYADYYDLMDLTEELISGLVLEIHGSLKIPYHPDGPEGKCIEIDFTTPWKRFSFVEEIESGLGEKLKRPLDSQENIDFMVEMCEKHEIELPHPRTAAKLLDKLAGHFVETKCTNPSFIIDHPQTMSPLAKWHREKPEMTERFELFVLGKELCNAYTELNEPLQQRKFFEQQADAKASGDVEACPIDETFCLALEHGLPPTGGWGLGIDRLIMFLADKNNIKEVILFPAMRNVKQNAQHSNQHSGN
Excerpt: The protein expression and purification method for recombinant CpKRS was described in Baragana et aL, PNAS, 2019, 116 (4), 7015-7020 and will be summarised below.
The C. parvum KRS had 45 residues removed at the N-terminus. All amplicons were cloned into the pAVA0421 expression vector using the ligation independent cloning (LIC) method. Recombinant plasmids were transformed into Rosetta BL21(DE3) competent cells and plated on LB agar plates with ampicillin, carbenicillin, and chloramphenicol selection. Clones were expressed using previously reported autoinduction methods and scaled to 2-litre cultures in a shake flasks. Cell pellets were harvested and lysed with 100 mM HEPES/150 mM NaCl/5% Glycerol/20 mM imidazole/0.5 mM TCEP pH 7.5/DNase/Complete inhibitor tablets) using a Cell Disrupter (Constant Systems) at 30 KPSI and centrifuged at 40,000 g for 20 min remove cell debris. The supernatant was loaded onto a 5 ml HiTrap Ni HP column that had been equilibrated with Buffer A (100 mM HEPES/150 mM NaCl/5% Glycerol/20 mM imidazole/0.5 mM TCEP pH 7.5) at 5 ml/min using an AKTA Pure system. Once loaded the column was washed with 10 column volumes of buffer A. A 5% step of Buffer B (100 mM HEPES/150 mM NaCl/5% Glycerol/500 mM imidazole/0.5 mM TCEP pH 7.5) was then used to wash off His-rich contaminating proteins. A linear gradient of 5-50% B was used to elute the protein. Approximately 287 mg of protein was present in the fractions containing the CpKRS protein. The sample was then concentrated to approximately 30 ml, passed through a 0.2 μm filter, before loading onto a XK26/60 Superdex 200 column using an AKTA Pure system at 4° C. at 2 ml/min 10 ml at a time. The eluted protein was pooled then frozen at −80° C. The concentration of the protein was 1.3 mg/ml. Sometimes the protein was cleaved with PreScission protease overnight, a second Ni column performed in flow through mode to removed uncleaved protein. GST beads were then added to remove the PreScission Protease. The protein was then gel filtered as descripted above.
Assay Method for Measurement of In Vitro Inhibition of Cryptosporidium lysyl tRNA Synthetase (KRS)
Potency of compounds was determined in 10 points dose-response inhibition curves. Compounds were transferred into 384-well clear bottom plates (Greiner Bio-One, 781101) using an Echo 550 acoustic dispenser (Labcyte). Using an automatic liquid dispenser, 50 μL reaction mixes were prepared by adding 25 μL of substrate mix into all wells followed by the addition of 25 μL enzyme mix into compounds and no inhibition control wells (final reaction: 100 mM HEPES, pH 7.4, 20 mM MgCl2, 1 mM DTT, 500 μM ATP, 1.2 mM L-Lysine, 300 nM CpKRS and 0.5 U/mL Pyrophosphatase). Complete inhibition control reactions were performed in the absence of enzyme and the plates were incubated at room temperature for 8 h. Reactions were stopped by the addition of Biomol green (50 μL: Enzo Life Sciences) with the amount of free phosphate detected by measuring absorbance (650 nm) after 20 min further incubation (BMG Pherastar plate reader). Counter screen assays to eliminate direct inhibition of pyrophosphatase were performed using 0.5 U/mL pyrophosphatase and 3 μM pyrophosphate as substrate in the same assay buffer (100 mM HEPES, pH 7.4, 20 mM MgCl2, 1 mM DTT) for 8 hours at room temperature. Biomol green was added and incubated for 20 min before detection as above. Samples were run in duplicate and data was processed and analysed using ActivityBase (IDBS).

[6] = tested on: Cryptosporidium; settings: Cryptosporidium-HIV co-infected patients not co-treated with HIV antiretroviral therapy; cited from earlier work

Sequence of PfLysRS (Q8IDJ8 1-583): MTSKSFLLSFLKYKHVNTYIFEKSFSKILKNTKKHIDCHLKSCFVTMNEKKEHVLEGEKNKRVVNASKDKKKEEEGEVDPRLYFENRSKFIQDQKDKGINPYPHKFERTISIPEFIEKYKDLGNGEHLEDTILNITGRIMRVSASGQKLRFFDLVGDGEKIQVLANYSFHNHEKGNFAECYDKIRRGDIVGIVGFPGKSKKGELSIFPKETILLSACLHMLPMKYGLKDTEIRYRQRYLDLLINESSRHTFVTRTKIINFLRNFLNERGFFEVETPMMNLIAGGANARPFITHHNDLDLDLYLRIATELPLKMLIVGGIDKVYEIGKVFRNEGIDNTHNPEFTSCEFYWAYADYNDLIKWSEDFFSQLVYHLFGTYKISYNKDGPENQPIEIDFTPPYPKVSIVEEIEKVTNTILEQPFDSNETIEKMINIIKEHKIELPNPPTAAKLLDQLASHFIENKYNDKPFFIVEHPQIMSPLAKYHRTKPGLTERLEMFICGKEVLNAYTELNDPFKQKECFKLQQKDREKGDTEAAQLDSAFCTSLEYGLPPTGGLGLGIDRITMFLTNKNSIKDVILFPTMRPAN

SMILES	EC50 [3] [µM]	IC50 [4] [µM]	IC50 [5] [µM]	selectivity for PfLysRS vs HsLysRS [1]	EC50 [2] [µM]	efficacy in clinical trials [6]
C[C@H]1CCC[C@H](C[C@H]2Cc3cc(O)cc(O)c3C(=O)O2)O1 [Cladosporin, cladosporin]				more than 100 fold		
Nc1nc2c(c(C(F)(F)F)n1)C(=O)N(C[C@@H]1CCC[C@@H](C(F)(F)F)C1)C2 [Compound 5, 2-amino-4-(trifluoromethyl)-6-(((1R,3R)-3-(trifluoromethyl)cyclohexyl)methyl)-6,7-dihydro-5H-pyrrolo[3,4-d]pyrimidin-5-one]	0.0501	20	1.58		15.8	
CC(=O)Oc1ccccc1C(=O)Nc1ncc([N+](=O)[O-])s1 [Nitazoxanide]						ineffective

More lines, main results first:

EC50 [3] [µM]	IC50 [4] [µM]	IC50 [5] [µM]	SMILES	selectivity for PfLysRS vs HsLysRS [1]	EC50 [2] [µM]	efficacy in clinical trials [6]
	> 100	> 50.1	Nc1nc2c(c(C(F)(F)F)n1)C(=O)N(C[C@H]1CCC[C@@H](C(F)(F)F)C1)C2 [Compound 6, 2-amino-4-(trifluoromethyl)-6-(((1S,3R)-3-(trifluoromethyl)cyclohexyl)methyl)-6,7-dihydro-5H-pyrrolo[3,4-d]pyrimidin-5-one]		> 100	
	63.1	15.8	Nc1nc2c(c(C(F)(F)F)n1)C(=O)N(C[C@H]1CCC[C@H](C(F)(F)F)C1)C2 [Compound 7, 2-amino-4-(trifluoromethyl)-6-(((1S,3S)-3-(trifluoromethyl)cyclohexyl)methyl)-6,7-dihydro-5H-pyrrolo[3,4-d]pyrimidin-5-one]		79.4	
